Source: US10472347B2, “Aminopyrazine compounds with A2A antagonist properties” (Merck Sharp & Dohme Corp., priority 2014, dated 2019)

Each compound was assayed against T1, human A2a receptor (Homo sapiens, UniProt P29274) (assay: A2a competition binding assay, Scintillation Proximity technology). Conditions: membranes from HEK293 cells expressing human A2a receptor; 0.5 nM tritiated ligand.
T1 construct: purchased Perkin-Elmer RBHA2AM400UA; host or cells: HEK293 cells (membranes)
Procedure: Binding affinities of compounds of the invention for the human A2a receptor were determined in a competition binding assay using Scintillation Proximity technology. Thus, […] from HEK293 cells expressing the human A2a receptor were incubated with a compound of the invention at concentrations ranging from 3000 nM to 0.15 nM in a reaction mixture containing also 0.5 nM of a tritiated form of 5-amino-7-[2-phenethyl]-2-(furan-2-yl)-7H-pyrazolo[4,3-e][1,2,4]triazolo[1,5-c]pyrimidine (the tritiated compound) and 100 μg of wheat germ agglutin-coated yttrium silicate SPA beads for one hour at room temperature with agitation. The beads were then allowed to settle to the bottom of the wells for 1 hr, after which the membrane-associated radioactivity was determined by scintillation counting in a TopCount microplate reader. Ki values were determined using the Cheng-Prusoff equation.
HEK293 cells expressing the human, rat, dog or monkey adenosine 2a receptor (Purchased from Perkin-Elmer # RBHA2AM400UA).
The Tritiated compound was prepared in-house by MRL Radiochemistry according to published methods.
Wheat germ agglutinin-coated yttrium silicate SPA beads (GE Healthcare #RPNQ0023). Dilute to 25 mg/ml in assay buffer.
Assay Buffer was prepared in house: Dulbecco's calcium and magnesium free phosphate buffered saline+10 mM MgCl2
Adenosine deaminase from calf intestine, 10 mg/2 ml (Roche #10 102 105 001).
A2a antagonist standard (9-chloro-1-(2-furanyl)-[1,2,4]triazolo1,5-c]quinazolin-5-amine from Tocris Bioscience)
Make eight 1:3 serial dilutions in 100% DMSO from a 3 mM compound stock
Transfer 50 nl of compound into a 384-well OptiPlate (Perkin Elmer).
Typically, final concentrations of compound used in the assay ranged from 3000 nM to 0.152 nM.
Dilute a solution of the Tritiated compound to 1.25 nM in assay buffer. This is a 2.5× solution. The final concentration in the assay is 0.5 nM. Calculate the concentration by counting two 5 μl aliquots.
Use 0.25 ug of membrane/well. Dilute membranes to 9.7 μg/ml in assay buffer. Treat with 20 ug/ml adenosine deaminase (ADA) for 15 minutes at room temperature to degrade endogenous adenosine.
Use 100 μg/well wheat germ agglutinin-coated yttrium silicate SPA beads.
Mix ADA-treated membranes and SPA beads together for 30 min prior to assay.
To the Perkin-Elmer Optiplate-384 containing the compound titration add 20 μl of 2.5× solution of the Tritiated compound and 30 μl of the membrane-bead mixture. Incubate for one hour at room temperature with agitation.
Include total binding (assay buffer+1% DMSO) and non-specific binding (CGS15943, 1 μM) wells.
Allow the beads to settle for one hour.
A curve fitting program (i.e., Prism, Activity Base, Chemcart) is used to determine the EC50. The Ki value is calculated using the Cheng-Prusoff equation. Ki=EC50/(1+(radioligand concentration/Kd))

T1 sequence (P29274 whole entry): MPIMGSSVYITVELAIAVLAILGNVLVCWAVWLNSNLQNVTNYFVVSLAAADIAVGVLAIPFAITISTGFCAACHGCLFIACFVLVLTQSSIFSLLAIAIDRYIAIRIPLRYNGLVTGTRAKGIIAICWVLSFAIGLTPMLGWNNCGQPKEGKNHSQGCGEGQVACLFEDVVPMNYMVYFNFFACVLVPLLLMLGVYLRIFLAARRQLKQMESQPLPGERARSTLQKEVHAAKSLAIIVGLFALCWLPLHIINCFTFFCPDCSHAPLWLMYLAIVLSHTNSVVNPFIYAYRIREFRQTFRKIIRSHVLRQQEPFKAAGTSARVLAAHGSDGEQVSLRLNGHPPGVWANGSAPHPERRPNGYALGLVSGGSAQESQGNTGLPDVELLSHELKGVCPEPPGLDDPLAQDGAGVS

Row | SMILES | EC50 [nM]
1 | Cc1nc(C(=O)N[C@@H]2CCc3cccnc32)c(N)nc1-c1ncco1 (single isomer, unassigned) [Ex-1A] | 4
2 | Cc1nc(C(=O)N[C@H]2CCc3cccnc32)c(N)nc1-c1ncco1 (single isomer, unassigned) [Ex-1B] | 2.9

Same assay, conditions: membranes from HEK293 cells expressing human A2a receptor; Ki by Cheng-Prusoff equation

Row | SMILES | Ki [nM]
3 | Cc1nc(C(=O)NC(C)c2ccccn2)c(N)nc1-c1ncco1 (single isomer, unassigned) [Ex-82A, 3-amino-6-methyl-5-(1,3-oxazol-2-yl)-N-(1-pyridin-2-ylethyl)pyrazine-2-carboxamide] | 2.48
4 | Cc1nc(C(=O)NC(C)c2ccccn2)c(N)nc1-c1ncco1 (single isomer, unassigned) [Ex-82B, 3-amino-6-methyl-5-(1,3-oxazol-2-yl)-N-(1-pyridin-2-ylethyl)pyrazine-2-carboxamide] | 43.5
5 | Cc1nc(C(=O)NC2CCCc3cnccc32)c(N)nc1-c1ncco1 (single isomer, unassigned) [Ex-84A, 3-amino-6-methyl-5-(1,3-oxazol-2-yl)-N-(5,6,7,8-tetrahydroisoquinolin-5-yl)pyrazine-2-carboxamide] | 280
6 | CCC(NC(=O)c1nc(C)c(-c2ncco2)nc1N)c1ccccn1 (single isomer, unassigned) [Ex-94A, 3-amino-6-methyl-5-(1,3-oxazol-2-yl)-N-(1-pyridin-2-ylpropyl)pyrazine-2-carboxamide] | 8.7
7 | CCC(NC(=O)c1nc(C)c(-c2ncco2)nc1N)c1ccccn1 (single isomer, unassigned) [Ex-94B, 3-amino-6-methyl-5-(1,3-oxazol-2-yl)-N-(1-pyridin-2-ylpropyl)pyrazine-2-carboxamide] | 138
8 | Cc1nc(C(=O)NC2CCCC(O)CC2)c(N)nc1-c1ncco1 (single isomer, unassigned) [Ex-165A, 3-amino-N-(4-hydroxycycloheptyl)-6-methyl-5-(1,3-oxazol-2-yl)pyrazine-2-carboxamide] | 13.1
9 | Cc1nc(C(=O)NC2CCCC(O)CC2)c(N)nc1-c1ncco1 (single isomer, unassigned) [Ex-165B, 3-amino-N-(4-hydroxycycloheptyl)-6-methyl-5-(1,3-oxazol-2-yl)pyrazine-2-carboxamide] | 2.12
10 | Cc1nc(C(=O)NC2CCCC(O)CC2)c(N)nc1-c1ncco1 (single isomer, unassigned) [Ex-165C, 3-amino-N-(4-hydroxycycloheptyl)-6-methyl-5-(1,3-oxazol-2-yl)pyrazine-2-carboxamide] | 7.64
11 | Cc1nc(C(=O)NC2CCCC(O)CC2)c(N)nc1-c1ncco1 (single isomer, unassigned) [Ex-165D, 3-amino-N-(4-hydroxycycloheptyl)-6-methyl-5-(1,3-oxazol-2-yl)pyrazine-2-carboxamide] | 9.34
12 | Cc1nc(C(=O)NC2CCCC2(F)F)c(N)nc1-c1ncco1 (single isomer, unassigned) [Ex-191A, 3-amino-N-(2,2-difluorocyclopentyl)-6-methyl-5-(1,3-oxazol-2-yl)pyrazine-2-carboxamide] | 1.33
13 | Cc1nc(C(=O)NC2CCCC2(F)F)c(N)nc1-c1ncco1 (single isomer, unassigned) [Ex-191B, 3-amino-N-(2,2-difluorocyclopentyl)-6-methyl-5-(1,3-oxazol-2-yl)pyrazine-2-carboxamide] | 2.56
14 | Cc1nc(C(=O)NC2CCc3c(Cl)ccnc32)c(N)nc1-c1ncco1 (single isomer, unassigned) [Ex-244A, 3-amino-N-(4-chloro-6,7-dihydro-5H-cyclopenta[b]pyridin-7-yl)-6-methyl-5-(1,3-oxazol-2-yl)pyrazine-2-carboxamide] | 0.22
15 | Cc1nc(C(=O)NC2CCc3c(Cl)ccnc32)c(N)nc1-c1ncco1 (single isomer, unassigned) [Ex-244B, 3-amino-N-(4-chloro-6,7-dihydro-5H-cyclopenta[b]pyridin-7-yl)-6-methyl-5-(1,3-oxazol-2-yl)pyrazine-2-carboxamide] | 1.28

Other lines, results leading:

Row | Ki [nM] | SMILES
16 | 245 | Cc1nc(C(=O)NC2CCCc3cnccc32)c(N)nc1-c1ncco1 (single isomer, unassigned) [Ex-84B, 3-amino-6-methyl-5-(1,3-oxazol-2-yl)-N-(5,6,7,8-tetrahydroisoquinolin-5-yl)pyrazine-2-carboxamide]
17 | 3.74 | Cc1nc(C(=O)NC2CCCc3cccnc32)c(N)nc1-c1ncco1 (single isomer, unassigned) [Ex-230A, 3-amino-6-methyl-5-(1,3-oxazol-2-yl)-N-(5,6,7,8-tetrahydroquinolin-8-yl)pyrazine-2-carboxamide]
18 | 0.762 | Cc1nc(C(=O)NC2CCCc3cccnc32)c(N)nc1-c1ncco1 (single isomer, unassigned) [Ex-230B, 3-amino-6-methyl-5-(1,3-oxazol-2-yl)-N-(5,6,7,8-tetrahydroquinolin-8-yl)pyrazine-2-carboxamide]
19 | 29.2 | COc1ccc2c(c1)CCC2NC(=O)c1nc(C)c(-c2ncco2)nc1N (single isomer, unassigned) [Ex-231A, 3-amino-N-(5-methoxy-2,3-dihydro-1H-inden-1-yl)-6-methyl-5-(1,3-oxazol-2-yl)pyrazine-2-carrboxamide]
20 | 10.5 | COc1ccc2c(c1)CCC2NC(=O)c1nc(C)c(-c2ncco2)nc1N (single isomer, unassigned) [Ex-231B, 3-amino-N-(5-methoxy-2,3-dihydro-1H-inden-1-yl)-6-methyl-5-(1,3-oxazol-2-yl)pyrazine-2-carboxamide]
21 | 1.15 | Cc1nc(C(=O)NC2CCc3ccccc3C2)c(N)nc1-c1ncco1 (single isomer, unassigned) [Ex-233A, 3-amino-6-methyl-5-(1,3-oxazol-2-yl)-N-(1,2,3,4-tetrahydronaphthalen-2-yl)pyrazine-2-carboxamide]
22 | 0.572 | Cc1nc(C(=O)NC2CCc3ccccc3C2)c(N)nc1-c1ncco1 (single isomer, unassigned) [Ex-233B, 3-amino-6-methyl-5-(1,3-oxazol-2-yl)-N-(1,2,3,4-tetrahydronaphthalen-2-yl)pyrazine-2-carboxamide]
23 | 5.51 | Cc1nc(C(=O)NC2c3ncccc3CC2O)c(N)nc1-c1ncco1 (single isomer, unassigned) [Ex-238A, 3-amino-N-(6-hydroxy-6,7-dihydro-5H-cyclopenta[b]pyridin-7-yl)-6-methyl-5-(1,3-oxazol-2-yl)pyrazine-2-carboxamide]
24 | 0.94 | Cc1nc(C(=O)NC2c3ncccc3CC2O)c(N)nc1-c1ncco1 (single isomer, unassigned) [Ex-238B, 3-amino-N-(6-hydroxy-6,7-dihydro-5H-cyclopenta[b]pyridin-7-yl)-6-methyl-5-(1,3-oxazol-2-yl)pyrazine-2-carboxamide]
25 | 6.69 | Cc1nc(C(=O)NC2CCc3ccc(Cl)nc32)c(N)nc1-c1ncco1 (single isomer, unassigned) [Ex-245A, 3-amino-N-(2-chloro-6,7-dihydro-5H-cyclopenta[b]pyridin-7-yl)-6-methyl-5-(1,3-oxazol-2-yl)pyrazine-2-carboxamide]
26 | 4.39 | Cc1nc(C(=O)NC2CCc3ccc(Cl)nc32)c(N)nc1-c1ncco1 (single isomer, unassigned) [Ex-245B, 3-amino-N-(2-chloro-6,7-dihydro-5H-cyclopenta[b]pyridin-7-yl)-6-methyl-5-(1,3-oxazol-2-yl)pyrazine-2-carboxamide]
